Test results from ChEMBL document CHEMBL1201862, “PubChem BioAssay data set” (2004).
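Method: 48-hour compound exposure of cells in 96-well plates, five concentrations, linear interpolation of endpoints. Abbreviation: GI50, concentration required for 50% inhibition of growth.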 Active and inactive are the calls of the source. No stated cut-off is given here; in the data, active = GI50 up to about 1.1 µM and inactive = higher.

How the values were obtained:
Experiment in all cases: NCI anticancer screen, dose series, 48 h
[1] = test system: HL-60
[2] = test system: HCT-15
[3] = test system: NCI/ADR-RES
[4] = test system: HT-29
[5] = test system: NCI-H522
[6] = test system: SNB-75
[7] = test system: TK-10
[8] = test system: SK-MEL-2
[9] = test system: CAKI-1
[10] = test system: A549
[11] = test system: SR
[12] = test system: OVCAR-3
[13] = test system: MOLT-4
[14] = test system: SF-539
[15] = test system: UACC-62
[16] = test system: SK-MEL-5
[17] = test system: Hs-578T
[18] = test system: Malme-3M
[19] = test system: SF-268
[20] = test system: DU-145
[21] = test system: OVCAR-4
[22] = test system: COLO 205
[23] = test system: SK-MEL-28
[24] = test system: SK-OV-3
[25] = test system: MDA-MB-231
[26] = test system: RXF 393
[27] = test system: OVCAR-8
[28] = test system: T47D
[29] = test system: HOP-92
[30] = test system: UACC-257
[31] = test system: K562
[32] = test system: PC-3
[33] = test system: M14
[34] = test system: BT-549
[35] = test system: MDA-MB-435
[36] = test system: HOP-62
[37] = test system: SW-620
[38] = test system: OVCAR-5
[39] = test system: ACHN
[40] = test system: 786-0
[41] = test system: SNB-19
[42] = test system: MCF7
[43] = test system: NCI-H460
[44] = test system: SN12C
[45] = test system: IGROV-1
[46] = test system: NCI-H23
[47] = test system: KM12
[48] = test system: EKVX
[49] = test system: LOX IMVI
[50] = test system: U-251
[51] = test system: HCT-116
[52] = test system: SF-295
[53] = test system: UO-31
[54] = test system: A498
[55] = test system: HCC 2998
[56] = test system: NCI-H226
[57] = test system: CCRF-CEM

O=C(CSc1nccc(=O)[nH]1)c1ccccc1
GI50 [1]: > 100 µM (inactive)
GI50 [2]: > 100 µM
GI50 [3]: 37.2 µM (inactive)
GI50 [4]: > 100 µM (inactive)
GI50 [5]: > 100 µM (inactive)
GI50 [6]: > 100 µM (inactive)
GI50 [7]: > 100 µM (inactive)
GI50 [8]: > 100 µM (inactive)
GI50 [9]: > 100 µM (inactive)
GI50 [10]: > 100 µM (inactive)
GI50 [11]: > 100 µM (inactive)
GI50 [12]: 40.7 µM (inactive)
GI50 [13]: > 100 µM (inactive)
GI50 [14]: 39.8 µM (inactive)
GI50 [15]: 46.2 µM (inactive)
GI50 [16]: > 100 µM (inactive)
GI50 [17]: 16.1 µM (inactive)
GI50 [18]: 82.4 µM (inactive)
GI50 [19]: > 100 µM (inactive)
GI50 [20]: > 100 µM (inactive)
GI50 [21]: > 100 µM (inactive)
GI50 [22]: > 100 µM (inactive)
GI50 [23]: > 100 µM (inactive)
GI50 [24]: > 100 µM (inactive)
GI50 [25]: 61.5 µM (inactive)
GI50 [26]: > 100 µM (inactive)
GI50 [27]: > 100 µM (inactive)
GI50 [28]: > 100 µM (inactive)
GI50 [29]: > 100 µM (inactive)
GI50 [30]: > 100 µM (inactive)
GI50 [31]: > 100 µM (inactive)
GI50 [32]: > 100 µM (inactive)
GI50 [33]: > 100 µM (inactive)
GI50 [34]: > 100 µM (inactive)
GI50 [35]: 62.2 µM (inactive)
GI50 [36]: 63.1 µM (inactive)
GI50 [37]: > 100 µM (inactive)
GI50 [38]: > 100 µM (inactive)
GI50 [39]: > 100 µM (inactive)
GI50 [40]: > 100 µM (inactive)
GI50 [41]: > 100 µM (inactive)
GI50 [42]: 91 µM (inactive)
GI50 [43]: 80.5 µM (inactive)
GI50 [44]: 49.9 µM (inactive)
GI50 [45]: > 100 µM (inactive)
GI50 [46]: > 100 µM (inactive)
GI50 [47]: > 100 µM (inactive)
GI50 [48]: > 100 µM (inactive)
GI50 [49]: 78.3 µM (inactive)
GI50 [50]: > 100 µM (inactive)
GI50 [51]: > 100 µM (inactive)
GI50 [52]: 60.4 µM (inactive)
GI50 [53]: > 100 µM (inactive)

CCN1C[C@]2(COC)[C@H](O)C[C@H](OC)[C@]34C1[C@H]([C@H](OC)[C@H]23)[C@]1(OC(C)=O)[C@H]2[C@@H](OC(=O)c3ccccc3)[C@](O)(C[C@H]24)[C@@H](OC)[C@@H]1O
GI50 [1]: > 100 µM (inactive)
GI50 [2]: > 100 µM
GI50 [3]: > 100 µM (inactive)
GI50 [4]: > 100 µM (inactive)
GI50 [5]: > 100 µM (inactive)
GI50 [6]: 31.1 µM (inactive)
GI50 [7]: > 100 µM (inactive)
GI50 [8]: > 100 µM (inactive)
GI50 [9]: > 100 µM (inactive)
GI50 [10]: > 100 µM (inactive)
GI50 [11]: > 100 µM (inactive)
GI50 [13]: > 10 µM (inactive)
GI50 [14]: > 100 µM (inactive)
GI50 [15]: > 100 µM (inactive)
GI50 [16]: > 100 µM (inactive)
GI50 [17]: > 100 µM (inactive)
GI50 [18]: > 100 µM (inactive)
GI50 [19]: > 100 µM (inactive)
GI50 [20]: > 100 µM (inactive)
GI50 [21]: > 100 µM (inactive)
GI50 [22]: > 100 µM (inactive)
GI50 [23]: > 100 µM (inactive)
GI50 [24]: > 100 µM (inactive)
GI50 [25]: > 100 µM (inactive)
GI50 [27]: > 100 µM (inactive)
GI50 [28]: > 100 µM (inactive)
GI50 [29]: > 100 µM (inactive)
GI50 [54]: > 100 µM (inactive)
GI50 [55]: > 100 µM (inactive)
GI50 [30]: > 100 µM (inactive)
GI50 [31]: > 100 µM (inactive)
GI50 [32]: > 100 µM (inactive)
GI50 [56]: > 100 µM (inactive)
GI50 [33]: > 100 µM (inactive)
GI50 [34]: > 100 µM (inactive)
GI50 [35]: > 100 µM (inactive)
GI50 [37]: > 100 µM (inactive)
GI50 [38]: > 100 µM (inactive)
GI50 [39]: > 100 µM (inactive)
GI50 [40]: > 100 µM (inactive)
GI50 [41]: > 100 µM (inactive)
GI50 [42]: > 100 µM (inactive)
GI50 [43]: > 100 µM (inactive)
GI50 [44]: > 100 µM (inactive)
GI50 [45]: > 100 µM (inactive)
GI50 [46]: > 100 µM (inactive)
GI50 [47]: > 100 µM (inactive)
GI50 [48]: > 100 µM (inactive)
GI50 [57]: > 100 µM (inactive)
GI50 [49]: > 100 µM (inactive)
GI50 [50]: > 100 µM (inactive)
GI50 [51]: > 100 µM (inactive)
GI50 [52]: > 100 µM (inactive)
GI50 [53]: > 100 µM (inactive)
